The values below come from ChEMBL document CHEMBL1143513, “Structure-activity relationships for 2-anilino-6-phenylpyrido[2,3-d]pyrimidin-7(8H)-ones as inhibitors of the cellular checkpoint kinase Wee1” (Bioorg Med Chem Lett, 2005).

Each structure is given as a SMILES string. pIC50: −log10 of the molar value. Some results are limits rather than exact numbers.

In one assay the target is Wee1-like protein kinase (Homo sapiens, UniProt P30291). Kind of assay: Inhibition of checkpoint kinase Wee1.
Assay [1] in a line: Inhibition of c-Src tyrosine kinase.
A short description of assay [2]: Inhibition of Platelet-derived growth factor receptor.
The target of assay [3] is Fibroblast growth factor receptor (Homo sapiens, UniProt P22607+P11362+P22455+P21802). The assay can be described thus: Inhibition of Fibroblast growth factor receptor. It is filed as protein assay.

Wee1-like protein kinase, sequence (P30291 whole entry): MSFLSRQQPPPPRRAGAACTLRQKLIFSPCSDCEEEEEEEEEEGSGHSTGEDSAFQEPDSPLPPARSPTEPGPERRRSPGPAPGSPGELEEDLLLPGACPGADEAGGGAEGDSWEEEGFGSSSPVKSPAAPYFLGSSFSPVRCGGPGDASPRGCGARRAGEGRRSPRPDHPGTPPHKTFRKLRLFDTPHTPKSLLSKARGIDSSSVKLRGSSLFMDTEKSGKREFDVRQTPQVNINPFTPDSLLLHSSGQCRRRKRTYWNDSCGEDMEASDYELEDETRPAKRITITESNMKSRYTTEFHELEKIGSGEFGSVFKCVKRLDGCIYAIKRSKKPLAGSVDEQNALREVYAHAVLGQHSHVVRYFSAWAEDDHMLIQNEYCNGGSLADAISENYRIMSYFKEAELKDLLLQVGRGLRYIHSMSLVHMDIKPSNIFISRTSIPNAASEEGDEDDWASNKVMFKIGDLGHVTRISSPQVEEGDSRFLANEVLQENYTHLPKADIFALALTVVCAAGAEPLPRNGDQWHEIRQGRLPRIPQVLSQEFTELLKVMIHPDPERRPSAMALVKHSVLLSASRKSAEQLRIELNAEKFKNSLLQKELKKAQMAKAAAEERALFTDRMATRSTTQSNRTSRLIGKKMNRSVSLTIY

The term pIC50 denotes the negative decadic logarithm of the IC50, by convention in mol/L. Read a low pIC50 as a high IC50. `CC(=O)Nc1cc(Cl)c(-c2cc3cnc(Nc4ccccc4)nc3n(C)c2=O)c(Cl)c1`: the pIC50 was 5.44 on Wee1-like protein kinase and 5.82 in assay [1].
In the same order, the values of `Cc1c(O)cc(O)c(C)c1-c1cc2cnc(Nc3ccccc3)nc2n(C)c1=O` are 6.00 and 6.96.
For the compound `Cn1c(=O)c(-c2c(Cl)cccc2Cl)cc2cnc(Nc3ccc(CCCC4N=NN=N4)cc3)nc21`, the pIC50 against Wee1-like protein kinase is 7.16; in assay [1], 7.60.
Consider `Cn1c(=O)c(-c2c(Cl)cccc2Cl)cc2cnc(Nc3ccc(CC(N)=O)cc3)nc21`, for which the pIC50 at Wee1-like protein kinase is 6.92; in assay [1] it was 7.89.
For `CN(C)CCOC(=O)CCCc1ccc(Nc2ncc3cc(-c4c(Cl)cccc4Cl)c(=O)n(C)c3n2)cc1`, the pIC50 is 6.91 at Wee1-like protein kinase and 8.15 in assay [1].
For `Cn1c(=O)c(-c2c(Cl)ccc(C(N)=O)c2Cl)cc2cnc(Nc3ccccc3)nc21` the same measures were 5.07 and 6.89.
Regarding `Cn1c(=O)c(-c2c(Cl)cc(O)cc2Cl)cc2cnc(Nc3ccccc3)nc21`, the pIC50 on Wee1-like protein kinase was 6.66; in assay [1] it was 7.14.
For `Cn1c(=O)c(-c2c(Cl)ccc(CO)c2Cl)cc2cnc(Nc3ccccc3)nc21` the same measures were 5.46 and 7.41.
For `Cc1cccc(Br)c1-c1cc2cnc(Nc3ccccc3)nc2n(C)c1=O` the same measures were 5.35 and 7.24.
In the same order, the values of `COc1cccc(O)c1-c1cc2cnc(Nc3ccccc3)nc2n(C)c1=O` are 4.96 and 7.30.
For `Cn1c(=O)c(-c2c(Cl)cccc2Cl)cc2cnc(Nc3ccc(CCCCC(N)=O)cc3)nc21`, the pIC50 on Wee1-like protein kinase is 6.59; in assay [1] it was 7.55.
For `COc1ccc(Cl)c(-c2cc3cnc(Nc4ccccc4)nc3n(C)c2=O)c1Cl` the same measures were less than 4.30 and 6.27.
`COc1cc(C)c(-c2cc3cnc(Nc4ccccc4)nc3n(C)c2=O)c(C)c1`: the negative-log IC50 (pIC50) against Wee1-like protein kinase is less than 4.30; in assay [1] it was 6.60.
For `COc1cccc(OC)c1-c1cc2cnc(Nc3ccccc3)nc2n(C)c1=O`, the pIC50 against Wee1-like protein kinase is less than 4.30; in assay [1] it was 6.01.
`CC(=O)Nc1ccc(Cl)c(-c2cc3cnc(Nc4ccccc4)nc3n(C)c2=O)c1Cl`: the pIC50 against Wee1-like protein kinase was less than 4.30; in assay [1], 6.11.
With `Cc1cccc(C)c1-c1c(C)c2cnc(Nc3ccccc3)nc2n(C)c1=O`, the figures for the pIC50 (against Wee1-like protein kinase; in assay [1]) were 5.92 and 4.82, respectively.
In the same order, the values of `Cc1cccc(Cl)c1-c1cc2cnc(Nc3ccccc3)nc2n(C)c1=O` are 5.72 and 7.92.
In the case of `CCN(CC)CCOc1ccc(Nc2ncc3c(C)c(-c4c(C)cccc4C)c(=O)n(C)c3n2)cc1`, the negative logarithm of the IC50 (pIC50) against Wee1-like protein kinase is 6.27; in assay [1], 6.44.
Take `CCN(CC)CCOc1ccc(Nc2ncc3c(C)c(-c4ccccc4Cl)c(=O)n(C)c3n2)cc1`: the figures for the pIC50 (against Wee1-like protein kinase; in assay [1]) were 6.26 and less than 4.30, respectively.
In the same order, the values of `CCN(CC)CCOc1ccc(Nc2ncc3cc(-c4c(C)cccc4C)c(=O)n(C)c3n2)cc1` are 6.00 and 7.64.
As for `Cn1c(=O)c(-c2c(Cl)ccc(O)c2Cl)cc2cnc(Nc3ccccc3)nc21`, the pIC50 was 7.13 at Wee1-like protein kinase and 8.05 in assay [1].
As to `COc1cccc(Cl)c1-c1cc2cnc(Nc3ccccc3)nc2n(C)c1=O`, the pIC50 against Wee1-like protein kinase is 5.47; in assay [1], 6.92.
In the same order, the values of `Cn1c(=O)c(-c2c(Cl)cccc2Cl)cc2cnc(Nc3ccc(OCCCC(=O)O)cc3)nc21` are 7.07 and 8.40.
For `Cn1c(=O)c(-c2c(Cl)cc(O)cc2Cl)cc2cnc(Nc3ccc(OCCCC(=O)O)cc3)nc21`, the pIC50 against Wee1-like protein kinase is 7.40; in assay [1] it was 8.22.
In the case of `CCN(CC)CCOc1ccc(Nc2ncc3cc(-c4c(Cl)ccc(O)c4Cl)c(=O)n(C)c3n2)cc1`, the pIC50 at Wee1-like protein kinase was 6.82; in assay [1], 8.22.
As to `Cn1c(=O)c(-c2c(Cl)ccc(N)c2Cl)cc2cnc(Nc3ccccc3)nc21`, the negative-log IC50 (pIC50) was 5.59 against Wee1-like protein kinase and 7.05 in assay [1].
Turning to `Cn1c(=O)c(-c2c(F)cccc2Cl)cc2cnc(Nc3ccccc3)nc21`, the pIC50 against Wee1-like protein kinase is 5.62; in assay [1], 7.37.
With `Cn1c(=O)c(-c2c(Cl)ccc(CN)c2Cl)cc2cnc(Nc3ccccc3)nc21`, the results for the pIC50 (against Wee1-like protein kinase; in assay [1]) were 4.51 and 7.21, respectively.
`Cn1c(=O)c(-c2c(C(F)(F)F)cccc2C(F)(F)F)cc2cnc(Nc3ccccc3)nc21`: the pIC50 against Wee1-like protein kinase is 4.39; in assay [1], 5.09.
In the case of `Cn1c(=O)c(-c2c(Cl)cc(N)cc2Cl)cc2cnc(Nc3ccccc3)nc21`, the pIC50 against Wee1-like protein kinase is 5.43; in assay [1], 6.57.
For the compound `Cn1c(=O)c(-c2c(Cl)ccc(C(=O)O)c2Cl)cc2cnc(Nc3ccccc3)nc21`, the pIC50 against Wee1-like protein kinase is 5.49; in assay [1] it was 6.55.
Consider `COc1cc(OC)cc(-c2cc3cnc(N)nc3nc2NC(=O)NC(C)(C)C)c1`, for which the pIC50 in assay [2] was less than 4.30.
`Cn1c(=O)c(-c2c(Cl)cccc2Cl)cc2cnc(Nc3ccccc3)nc21`: the results for the pIC50 (on Wee1-like protein kinase; in assay [1]) were 5.59 and 7.62, respectively.
For `Cc1c(-c2ccccc2)c(=O)n(C)c2nc(Nc3ccccc3)ncc12` the same measures were less than 4.30 and less than 4.30.
In the same order, the values of `COc1cc(OC)c(C)c(-c2cc3cnc(Nc4ccccc4)nc3n(C)c2=O)c1C` are 4.48 and 4.41.
For `Cc1cccc(C)c1-c1cc2cnc(Nc3ccccc3)nc2n(C)c1=O` the same measures were 6.00 and 7.85.
`Cn1c(=O)c(-c2c(Cl)ccc(Cl)c2Cl)cc2cnc(Nc3ccccc3)nc21`: the negative-log IC50 (pIC50) at Wee1-like protein kinase was less than 4.30; in assay [1], 6.57.
Regarding `Cn1c(=O)c(-c2c(O)cccc2O)cc2cnc(Nc3ccccc3)nc21`, the values for the pIC50 (against Wee1-like protein kinase; in assay [1]) were 4.57 and 6.14, respectively.
As for `COc1cc(Cl)c(-c2cc3cnc(Nc4ccccc4)nc3n(C)c2=O)c(Cl)c1`, the negative-log IC50 (pIC50) at Wee1-like protein kinase was less than 4.30; in assay [1] it was 5.19.
In the same order, the values of `Cc1ccc(Cl)c(-c2cc3cnc(Nc4ccccc4)nc3n(C)c2=O)c1Cl` are 4.30 and 5.55.
For `Cn1c(=O)c(-c2c(Cl)cccc2C(F)(F)F)cc2cnc(Nc3ccccc3)nc21` the same measures were less than 4.30 and 6.68.
As for `Cc1c(-c2ccccc2Cl)c(=O)n(C)c2nc(Nc3ccccc3)ncc12`, the pIC50 was 6.39 against Wee1-like protein kinase and less than 4.30 in assay [1].
For `Cn1c(=O)c(-c2c(Cl)c(O)cc(O)c2Cl)cc2cnc(Nc3ccccc3)nc21` the same measures were 6.85 and 7.96.
For `COc1cc(OC)c(Cl)c(-c2cc3cnc(Nc4ccccc4)nc3n(C)c2=O)c1Cl` the same measures were less than 4.30 and less than 4.30.
With `Cn1c(=O)c(-c2c(Cl)cc(Cl)cc2Cl)cc2cnc(Nc3ccccc3)nc21`, the pIC50 on Wee1-like protein kinase is 5.07; in assay [1], 6.48.
In the same order, the values of `Cn1c(=O)c(-c2c(Br)cccc2Br)cc2cnc(Nc3ccccc3)nc21` are 6.39 and 7.33.
With `Cn1c(=O)c(-c2c(Cl)cccc2Cl)cc2cnc(Nc3ccc(CCCC(=O)OCCN4CCCCC4)cc3)nc21`, the values for the negative logarithm of the IC50 (pIC50) (on Wee1-like protein kinase; in assay [1]) were 6.85 and 7.96, respectively.
In the same order, the values of `Cn1c(=O)c(-c2c(Cl)cccc2Cl)cc2cnc(Nc3ccc(CCCC(=O)OCCN4CCOCC4)cc3)nc21` are 7.02 and 8.40.
In the same order, the values of `Cn1c(=O)c(-c2c(Cl)ccc(O)c2Cl)cc2cnc(Nc3ccc(OCCCC(=O)O)cc3)nc21` are 7.40 and 7.00.
`Cn1c(=O)c(-c2c(Cl)cccc2Cl)cc2cnc(Nc3ccc(OCC(N)=O)cc3)nc21`: the pIC50 is 6.60 against Wee1-like protein kinase and 7.85 in assay [1].
For `Cc1cc(O)cc(C)c1-c1cc2cnc(Nc3ccccc3)nc2n(C)c1=O`, the pIC50 is 6.24 on Wee1-like protein kinase and 7.77 in assay [1].
In the same order, the values of `Cn1c(=O)c(-c2c(F)cccc2F)cc2cnc(Nc3ccccc3)nc21` are 5.01 and 7.18.
The term IC50 denotes the concentration needed to halve the response being measured. A lower IC50 goes with greater potency in that assay. Consider `COc1cc(OC)cc(-c2cc3cnc(NCCCN4CCOCC4)nc3nc2NC(=O)NC(C)(C)C)c1`, for which, in assay [1], the pIC50 is less than 4.30. The compound also registered an IC50 in assay [3] of 30 nM.
Turning to `Cn1c(=O)c(-c2c(Cl)cccc2Cl)cc2cnc(Nc3ccc(CCC(N)=O)cc3)nc21`, the pIC50 is 6.72 on Wee1-like protein kinase and 7.52 in assay [1].
On to `Cn1c(=O)c(-c2c(O)cccc2Cl)cc2cnc(Nc3ccccc3)nc21`, for which the figures for the pIC50 (on Wee1-like protein kinase; in assay [1]) were 5.82 and 7.66, respectively.
For `Cn1c(=O)c(-c2c(Cl)cccc2Cl)cc2cnc(Nc3ccc(CC(N)C(=O)O)cc3)nc21` (stereo not given) the same measures were 7.05 and 8.05.
`CCN(CC)CCOc1ccc(Nc2ncc3cc(-c4c(Cl)cc(O)cc4Cl)c(=O)n(C)c3n2)cc1`: the figures for the pIC50 (on Wee1-like protein kinase; in assay [1]) were 7.10 and 8.10, respectively.
For `CC(C)(C)NC(=O)Nc1nc2nc(N)ncc2cc1-c1c(Cl)cccc1Cl`, the pIC50 in assay [2] was 5.96.
The compound `CCN(CC)CCOc1ccc(Nc2ncc3cc(-c4c(Cl)cccc4Cl)c(=O)n(C)c3n2)cc1` [PD-0166285] gave a pIC50 in assay [2] of 4.10.
